Read-outs that look alike come from different tables or passages of the source.
Experiments:
4T1 cells [1] = test: Survival rate in mice with 4T1 breast cancer; format: in vivo, BALB/cAnN mice; conditions: log-rank test
Procedure: As used in the following Examples of Embodiment, GK-1 was synthesized under good manufacturing practices by USV, LTD, with a purity higher than 95%. The peptide was intravenously administered to mice at a dose of 0.5 mg/kg.
Four to six weeks-old female and male BALB/cAnN mice were used, with a weight range of 17-23 g for females and 20-27 g for males. All mice were maintained in pathogen-free conditions, as required by the Mexican Official Regulation NOM-062-ZOO-1999.
J. et al., Cancer Res, 1992. […] 279(45):46659-67]. […] The administration was repeated weekly at different times.
To determine the survival rate in mice with breast cancer, 1×10^3 4T1 cells were implanted to 40 BALB/cAnN mice as described in the Example of Embodiment 1; 10 males and 10 females were included in each group (G1 and G2). The administration schedule described in the Example of Embodiment 1 was repeated weekly after a solid tumor development, and for 62 days after cell implant.

[2] = test system: TCD4+ and TCD8+ lymphocyte populations; conditions: cited from earlier work
4T1 cells [3] = conditions: superficial zone, day 39
Procedure: A histological analysis was performed on primary tumors at day 39 post-implantation, to determine the percentage of zones with tissue death in mice from the Example of Embodiment 3. All tumors were manually sectioned and fixed in a 10% formaldehyde solution overnight at 4° C. Then, samples were included in paraffin and processed to obtain 4-μm slices; slices were stained with hematoxylin and eosin (H&E). The upper, middle, and deep tumor sections were analyzed through an Olympus B×50 microscope equipped with a digital camera and using the Infinity Analyze software (v6.3.0).

B16-F10 cells [4] = conditions: for Number of tumors developed (Tumors): 10 μg GK-1 i.v. weekly, 32 days, mean±standard deviation
Procedure: To evaluate the antimetastatic effect of GK-1 in melanoma, 2×10^4 cells of the B16-F10 line were intravenously injected to C57BL/6 mice (n=40; 20 females and 20 males). At day 16 post-implantation, mice were separated into two groups: The G1 group (10 males and 10 females) was intravenously administered with 10 μg of GK-1 dissolved in 100 μL of ISS; the G2 group (10 males, 10 females) was intravenously administered with 100 μL of ISS. Treatments were repeated weekly for 32 days after cell implantation.

melanoma = conditions: mouse melanoma model; cited from earlier work
4T1 cells [5] = conditions: day 39, five experiments
Excerpt: It is known that the metastasis sites in the 4T1 cell-induced breast cancer murine model are lungs, brain, liver, and bone [Aslakson C. J. et al., Cancer Res. 1992, 52(6): 1399-405; Mi Z. et al., J Biol Che. 2004; 279(45): 46659-67]. Therefore, to assess the antimetastatic effect of GK-1, lungs, liver, and brain from mice in G1 and G2 groups in the Example of Embodiment 3 were recovered and fixed with a 10% formaldehyde solution to macroscopically identify any metastatic focus on these organs.

[6] = test system: T cell, macrophage, and dendritic cells; conditions: in vitro; cited from earlier work
[7] = test system: 4T1 mammary carcinoma murine model
Procedure: Lungs, liver, spleen, brain, and primary tumor were dissected from mice in the groups G1 and G2 of the Example of Embodiment 3, to determine the soluble factors present in the tumor microenvironment and in metastatic-associated organs; in order to obtained a protein extract, 5 mg of each tissue were weighed and placed in 300 μL of lysis buffer with protease inhibitors, then were homogenized. Finally, homogenates were centrifuged for 20 min at 13 000 rpm at 4° C., collecting the supernatants (protein extract). Additionally, serum was isolated from blood samples obtained from all mice. Serum and protein extract samples were processed through the Magpix Luminex system (xPonent software) to determine the concentration of cytokines, chemokines, and growth factors.
Data in Tables 2, 3, and 4 correspond to spleen, lung, and brain soluble factor concentrations expressed in pg/mg of protein. A random sample of 6 mice was taken from 5 independent experiments. * P<0.05.

B16-F10 cells [8] = test: B16-F10 melanoma model: survival rate and lung tumor foci (four groups); format: in vivo, C57BL/6 mice; conditions: for survival rate: i.v. weekly, 32 days after implantation
Procedure: The B16 melanoma model is a lung metastasis model widely used for therapy evaluation. While the term “lung metastasis” is used to characterize this type of model, technically each lung nodule is a primary tumor.
Once the tumor is established (16 days after B16-F10 cells were implanted), mice were separated into four groups: One group was administered with a 0.10 μg/μL GK-1 solution in DMSO (0.05%); another group was administered with 0.10 μg/μL GK-1 solution in ISS; a third group received 100 μL of DMSO (0.05%); and a fourth group was administered with 100 μL of ISS; treatments were applied intravenously in all cases. Treatments were repeated weekly after a palpable tumor appeared and for 32 days after cell implantation.
In order to establish the antitumor effect of GK-1, lungs were dissected from mice in all experimental groups at the day 32 post-implantation, and were fixed in a 10% formaldehyde solution to macroscopically determine the number of tumor foci developed.

4T1 cells [9] = test system: 4T1 cells
Procedure: The 4T1 cell line (American Type Culture Collection, Manassas, Va.) was used to induce a neoplasia emulating breast cancer; according to the natural history of the disease, metastasis to lung should be observed [Aslakson C. J. et al., Cancer Res, 1992. 52(6): 1399-405; Mi Z et al., J Biol Chem, 2004. 279(45):46659-67]. The 4T1 cell line was cultured in RPMI medium (Gibco, Grand Island, N.Y.) supplemented with 10% of heat-inactivated fetal bovine serum, 10 U/mL of penicillin, and 100 μg/mL of streptomycin, at 37° C. under 95% relative humidity and 5% CO2. Cultured cells were recovered by trypsinization (0.25% trypsin-0.53 mM EDTA) and washed three times with cold serum-free RPMI medium before subcutaneous implanting. About 1×10^3 4T1 cells were subcutaneously injected in the right mammary gland in BALB/cAnN mice. Tumor induction was determined by the appearance of 1 mm×1 mm solid tumors (palpable tumor), between 18 and 20 days after cell implantation. Once the established tumors reached that size, mice were distributed into two groups: Group 1 (G1) was intravenously administered with a solution of 10 μg of GK-1 in 100 μL of ISS (corresponding to 0.5 mg/kg); Group 2 (G2) was administered with ISS (100 μL) by the same route. The administration was repeated weekly at different times.
All animals were weighed before treatment, and tumor growth was continuously recorded. Tumor volume was calculated according to the following formula [Carlsson G. et al., J Cancer Res Clin Oncol, 1983. 105(1): 20-23]: Volume (mm^3)=πLW^2/6, where L is the largest side and W is the smallest side.
At the day 39 after cell implanting, animals were euthanized in accordance with the guidelines in the United Kingdom Coordinating Committee on Cancer Research (UKCCCR). The primary tumor, spleen, lungs, liver, and brain were dissected. In total, five separate experiments were performed.
As mentioned in the Example of Embodiment 1, once palpable tumors were developed in mice (G1: females X=6, males X=4; G2: females X=6, males X=4 per experiment), tumor volume was determined every third day for 39 days, with electronic Vernier.

influenza vaccine = conditions: cited from earlier work
[10] = test system: dendritic cells (DCs) loaded with the MAGE antigen; conditions: immunotherapy against murine melanoma; cited from earlier work

G-Y-Y-Y-P-S-D-P-N-T-F-Y-A-P-P-Y-S-A (GYYYPSDPNTFYAPPYSA; tapeworm) [GK-1]
survival with respect to saline-treated mice (Kaplan-Meyer) (4T1 cells [1]): significantly increased survival | proliferation of TCD4+ and TCD8+ lymphocyte populations [2]: increase the proliferation | area of necrotic-apoptotic cells in primary tumor (4T1 cells [3]): increase in the area of necrotic-apoptotic cells | Distant (tumors at sites other than the lungs: liver, brain, intestine) (B16-F10 cells [4]; Females): 1/10 | Lung (mice with lung tumors) (B16-F10 cells [4]; Females): 8/10 | Number of tumors developed (Tumors) (B16-F10 cells [4]; Females): 62.9 ± 48.1 | Distant (tumors at sites other than the lungs: liver, brain, intestine) (B16-F10 cells [4]; Males): 0/10 | Lung (mice with lung tumors) (B16-F10 cells [4]; Males): 8/10 | Number of tumors developed (Tumors) (B16-F10 cells [4]; Males): 77.0 ± 37.6 | antimetastatic effect in melanoma (B16-F10 cells [4]; lung tumor foci G1 versus G2): ineffective to stop metastasis in melanoma | mean survival (melanoma): increased the mean survival | primary tumor necrosis (melanoma): increased primary tumor necrosis | tumor growth rate (melanoma): delayed tumor growth rate | proportion of mice with lung metastatic foci within the 0-20 range (4T1 cells [5]): 67% | immune cell activation (CD80/86, MHC-II expression; IFN-γ, TNF-α, CCL2 secretion) [6]: promoting T cell, macrophage, and dendritic cells activation | CCL2 concentration ([7]; Brain): 3.44E+00 pg/mg of protein | CCL3 concentration ([7]; Brain): 1.40E+01 pg/mg of protein | CXCL9 concentration ([7]; Brain): 1.44E+02 pg/mg of protein | GM-CSF concentration ([7]; Brain): 2.53E+01 pg/mg of protein | IL-1α concentration ([7]; Brain): 1.44E+01 pg/mg of protein | IL-2 concentration ([7]; Brain): 6.02E+01 pg/mg of protein | IL-4 concentration ([7]; Brain): 1.36E+02 pg/mg of protein | IL-5 concentration ([7]; Brain): 1.18E+02 pg/mg of protein | IL-12 concentration ([7]; Brain): 5.29E+00 pg/mg of protein | IL-17 concentration ([7]; Brain): 8.06E+01 pg/mg of protein | TNF-α concentration ([7]; Brain): 1.26E+01 pg/mg of protein | bFGF concentration ([7]; Brain): 1.16E+04 pg/mg of protein | CCL2 concentration ([7]; Lung): 4.71E+01 pg/mg of protein | CCL3 concentration ([7]; Lung): 5.36E+01 pg/mg of protein | CXCL9 concentration ([7]; Lung): 3.88E+03 pg/mg of protein | GM-CSF concentration ([7]; Lung): 4.06E+01 pg/mg of protein | IL-1α concentration ([7]; Lung): 1.50E+02 pg/mg of protein | IL-2 concentration ([7]; Lung): 6.28E+01 pg/mg of protein | IL-4 concentration ([7]; Lung): 1.49E+02 pg/mg of protein | IL-5 concentration ([7]; Lung): 2.06E+02 pg/mg of protein | IL-12 concentration ([7]; Lung): 3.83E+00 pg/mg of protein | IL-17 concentration ([7]; Lung): 6.22E+00 pg/mg of protein | TNF-α concentration ([7]; Lung): 3.21E+01 pg/mg of protein | bFGF concentration ([7]; Lung): 3.61E+03 pg/mg of protein | CCL2 concentration ([7]; Spleen): 1.19E+01 ± 4.41E+00 pg/mg of protein | CCL3 concentration ([7]; Spleen): 4.99E+01 ± 1.51E+01 pg/mg of protein | CXCL9 concentration ([7]; Spleen): 2.31E+04 ± 1.36E+04 pg/mg of protein | GM-CSF concentration ([7]; Spleen): 3.79E+01 ± 1.60E+01 pg/mg of protein | IL-1α concentration ([7]; Spleen): 6.28E+02 ± 2.42E+02 pg/mg of protein | IL-2 concentration ([7]; Spleen): 6.65E+01 ± 1.05E+01 pg/mg of protein | IL-4 concentration ([7]; Spleen): 7.03E+01 ± 9.56E+01 pg/mg of protein | IL-5 concentration ([7]; Spleen): 1.65E+02 ± 1.00E+02 pg/mg of protein | IL-12 concentration ([7]; Spleen): 8.06E+01 ± 3.61E+01 pg/mg of protein | IL-17 concentration ([7]; Spleen): 2.98E+00 ± 3.01E+00 pg/mg of protein | TNF-α concentration ([7]; Spleen): 1.00E+02 ± 2.46E+01 pg/mg of protein | bFGF concentration ([7]; Spleen): 2.30E+04 ± 3.54E+03 pg/mg of protein | cytokine profile in serum or liver samples versus G2 ([7]; serum, liver): no differences were found | survival rate (B16-F10 cells [8]; GK-1 dissolved in DMSO (0.05%)): 25% | survival rate (B16-F10 cells [8]; GK-1 dissolved in ISS): 57.14% | number of tumor foci developed in lungs versus other treatments (B16-F10 cells [8]; day 32, GK-1 in DMSO or ISS versus vehicles): no statistically significant differences | Tumor weight (4T1 cells [9]; Exp 1, day 39): 0.825 ± 0.391 g | Tumor weight (4T1 cells [9]; Exp 2, day 39): 0.991 ± 0.507 g | Tumor weight (4T1 cells [9]; Exp 3, day 39): 1.150 ± 0.939 g | Tumor weight (4T1 cells [9]; Exp 4, day 39): 1.477 ± 0.889 g | Tumor weight (4T1 cells [9]; Exp 5, day 39): 0.587 ± 0.339 g | Tumor weight (4T1 cells [9]; Total of five experiments, day 39): 1.044 ± 0.697 g | reduction in tumor weight with respect to untreated mice (4T1 cells [9]; day 39): 27.8% | Tumor weight (4T1 cells [9]; day 39, text, five experiments): 1.04 ± 0.70 g | tumor volume versus untreated mice (4T1 cells [9]; every third day for 39 days): lower tumor volume than untreated mice, the difference was not statistically significant | infiltrate of mononuclear cells to the lung parenchyma (influenza vaccine; a few days after subcutaneous administration): promotes the infiltrate of mononuclear cells | titer of specific IgG antibodies (influenza vaccine; young and senile mice, influenza vaccine adjuvant): increasing the titer of specific IgG antibodies | activation of MAGE-loaded DCs [10]: increase in the activation of these DCs
